In patent publication EP0848957A1, “Fas LIGAND SOLUBILIZATION INHIBITOR” (KANEBO LTD., priority 1995, dated 1997):

Tests used:
[1] = test system: hFas L/BHK-21 (BHK-21 cells in which human Fas L cDNA was transfected); assay: Test for inhibition of Fas L solubilization (sFas L in culture supernatant by sandwich-ELISA); format: cell-based; details: for inhibition at 5 µM: Homo sapiens, BHK-21, 24 h, incubated 24 hours at 37°C, read-out: aFas L secretion inhibition rate (%); for IC50: BHK-21, sFas L secretion inhibition at 5, 2.5, 1.25, 0.625 µM, probit method
Method: hFas L/BHK-21 (BHK-21 cells in which human Fas L cDNA was transfected)(3.5 x 10^5) was suspended in 1ml of RPMI 1640 culture medium containing 10% fetal bovine serum, and in 24 wells culture plate (Falcon 3047, Becton Dickenson Co., Ltd.) each test sample adjusted with RPMI 1640 containing 10% fetal bovine serum at the final concentration 5, 2.5, 1.25, and 0.625 µM was incubated under 5% carbon dioxide atmosphere at 37°C for 24 hours, to obtain a culture supernatant.
The concentration of sFas L in the supernatant thus obtained was quantitatively analyzed by the sandwich-ELISA method as shown below.
The concentration of anti Fas L antibody (NOK3)(see preparation 17) was adjusted to 10µg/ml with 0.05M sodium carbonate-sodium hydrogen carbonate buffer solution (pH 9.6), and each 50µl thereof was poured in each well of a 96-wells microplate (Immunolon 2, Dinatech Co., Ltd.) and left it overnight at 4°C to make the solid phase. Each well was washed twice with 300 µl of a washing solution consisting of a physiological saline solution adjusted at pH 7.4 with a phosphate buffer solution, containing 0.05% of Tween 20 (polyoxyethylene sorbitan monolaurate)(abbreviated as T-PBS), and then to it was added 300µl of PBS (pH 7.4) containing bovine serum albumin (abbreviated as BSA, Wako Chemical Co., Ltd), and it was left for 2 hours at 37°C to remove the supernatant.
Then, the culture supernatant (50µl) containing a test sample were added to each well, and incubated for one hour at room temperature. After incubation, each well was washed twice with 300µl of T-PBS (pH7.4).
The concentration of anti Fas L antibody (NOK1) labeled with biotin (see preparation 18) was adjusted to 5µg/ml by diluting with PBS (pH 7.4) containing 1% BSA, and 50µl thereof was added to the solution prepared above. The solution was reacted for one hour at room temperature, and washed twice with 300µl of T-PBS (pH 7.4).
And then, streptoavidin-peroxidase (Amasham Lab.) was diluted 1000 times with PBS (pH 7.4) containing 1% of BSA, and 50µl thereof was added to it. The solution was incubated for 30 minutes at room temparature and was washed twice with 300µ of T-PBS (pH 7.4).
Further, 100µl of 0.15M citric acid-sodium phosphate buffer solution (pH 5.0) containing hydrogen peroxide and o-phenylenediamine (former concentration:0.015 w/v%, latter concentration:0.2mg/ml) was added to each well and incubated for 10 minutes at room temperature.
After incubation, 50µl of 2 N sulfuric acid was added to each well to quench the reaction, and the absorbance at 490 nm was measured by Softmax (Molecular Device Co., Ltd.)
On the other hand, by measuring the absorbance of the sFas L solution of which the concentration was known, as a sample instead of the culture supernatant, the calibration curve was detected based on 4-logistic parameter analysis, and based on it the concentration (X) of sFas L in the culture supernatant was calculated.
As a control, by using the concentration (A) of sFas L in the culture supernatant in case that the test sample was not added, based on the concentration (X) of sFas L in the culture supernatant in case that the sample was added, sFas secretion inhibition rate (%) at 5µM was calculated by using the following formula sFas L secretion inhibition rate (%) = (1-X/A) x 100 [formula]

GVHD induced mouse [2] = assay: Recovery test of GVHD induced mouse; format: in vivo, CBF1 mice; details: 2mg / mouse / day subcutaneously every day for 2 weeks
Method: CBF1 mice (F1 mice of BALB/c and C57BL/6) were injected with splenocytes (5x10^7) of C57BL/6 mouse, and a week later were again injected with splenocytes 5x10^7 to induce GVHD into a mouse.
A test sample was suspended in 0.5% CMC solution (test sample 10mg vs the CMC solution 1ml), 2mg of the test sample / mouse / day was subcutaneously administered every day for 2 weeks beginning from injection of splenocytes to the above GVHD induced mice, and this group was compared with the GVHD induced group in which any test sample was not administered (no drug administered group) and the GVHD non-induced group (non-treated group).
The body weight of mice (g) was measured every week a week later after the first injection of splenocytes, for 6 weeks, and the total IgE amount (ng/ml) was measured every week a week later after the first injection of splenocytes, for 9 weeks, and the degree of GVHD was evaluated by change of day.

GVHD induced mouse [3] = assay: Prevention of the mortality of GVHD induced mouse; format: in vivo, CBF1 mouse; details: splenocytes 1x10^8; after the death of all mice of the drug non-administered group; 3 weeks observation
Method: GVHD was introduced into CBF1 mouse in the same manner as in Test example 2, except for the numbers of the injected splenocytes, 1x10^8, and the test sample administered group was compared with the drug non-administered group and the non-treated group.
The effect of test samples was evaluated by the mortality of mouse for 3 weeks after the first introduction of the splenocytes.

[4] = Toxicity after oral administration (mortality); format: in vivo; details: 3,000mg/kg:body weight, orally administered
Method: And a compound of the generic formula (I) or its pharmaceutically acceptable salt was low in toxicity. For example, when compound 4a ( 3,000mg/kg:body weight) was orally administered, the mortality was not found. Therefore, a compound of the generic formula (I) or its pharmaceutically acceptable salt is useful for preventing and treating the diseases in which apoptosis caused by binding the solubilized Fas L with Fas is considered to participate, for example, fulminant hepatitis, GVHD, AIDS, autoimmune diseases, etc.

Structure (SMILES) | inhibition at 5 µM [1] [%] | IC50 [1] [µM] | other results
CNC(=O)[C@H](Cc1ccc(OC)cc1)NC(=O)[C@@H](CC(=O)NO)CC(C)C [Test sample A, [4-(N-hydroxyamino)-2(R)-isobutylsuccinyl]-L-O-methyltyrosine-N-methylamide] | 47 | – | –
CNC(=O)[C@H](Cc1cccc2c1CCCC2)NC(=O)[C@H](CC(C)C)C(C)C(=O)NO (stereo partly drawn) [Test sample H, [4-(N-hydroxyamino)-2(R)-isobutyl-3-methylsuccinyl]-L-3-(5,6,7,8-tetrahydro-1-naphthyl)alanine-N-methylamide] | 57 | – | –
CNC(=O)[C@H](Cc1ccccc1)NC(=O)[C@H](CC(C)C)[C@H](CSc1ccccc1)C(=O)NO [Test sample B, [4-(N-hydroxyamino)-2(R)-isobutyl-3(S)-phenylthiomethylsuccinyl]-L-phenylalanine-N-methylamide] | > 70 | 2.2 | –
NS(=O)(=O)c1ccc(CCNC(=O)[C@H](CC2CCCCC2)NC(=O)[C@H](CCCc2ccccc2)CC(=O)NO)cc1 [Test sample G, [4-(N-hydroxyamino)-2(R)-(3-phenylpropyl)succinyl]-L-3-cyclohexylalanine-N-[2-(4-sulfonylamidophenyl)ethyl]amide] | > 70 | 1.1 | –
CNC(=O)[C@H](Cc1ccccc1)NC(=O)[C@H](CC(C)C)[C@H](CSc1cccs1)C(=O)NO [Test sample D, [4-(N-hydroxyamino)-2(R)-isobutyl-3(S)-(2-thienylthiomethyl)succinyl]-L-phenylalanine-N-methylamide] | > 70 | 1.6 | –
CNC(=O)[C@H](Cc1cccc2ccccc12)NC(=O)[C@H](CC(C)C)C(C)C(=O)NO (stereo partly drawn) [Test sample I, [4-(N-hydroxyamino)-2(R)-isobutyl-3-methylsuccinyl]-L-3-(1-naphthyl)alanine-N-methylamide] | 50 | – | –
CNC(=O)[C@H](Cc1ccc(OC)cc1)NC(=O)[C@H](CC(C)C)[C@H](C)C(=O)NO [Test sample C, [4-(N-hydroxyamino)-2(R)-isobutyl-3(S)-methylsuccinyl]-L-O-methyltyrosine-N-methylamide] | > 70 | 1.5 | –
CNC(=O)[C@@H](NC(=O)[C@@H](CC(=O)NO)CC(C)C)c1ccc2ccccc2c1 [Test sample F, [4-(N-hydroxyamino)-2(R)-isobutylsuccinyl]-L-2-naphthylglycine-N-methylamide] | 35 | – | –
CNC(=O)[C@@H](NC(=O)[C@H](CC(C)C)[C@H](C)C(=O)NO)c1ccccc1 [Test sample E, [4-(N-hydroxyamino)-2(R)-isobutyl-3(S)-methylsuccinyl]-L-phenylglycine-N-methylamide] | 29 | – | decrease of body weight caused by the induced GVHD (GVHD induced mouse [2]; body weight measured weekly for 6 weeks): clearly prohibited; increase of total IgE amount caused by the induced GVHD (GVHD induced mouse [2]; total IgE measured weekly for 9 weeks): clearly prohibited; survival rate (GVHD induced mouse [3]): 90%; mortality [4]: not found
